Measured values published in the NIST ThermoML archive (doi:10.1016/j.tca.2011.10.010).
± gives the expanded uncertainty stated by the source.

Assay: xn = mol fraction of the nth substance listed
Conditions: 101 kPa, Liquid, Vibrating tube method

CCN(CC)CCO.Cl [2-(diethylamino)ethanol hydrochloride] + OCC(O)CO
mass density [kg/m3]
Conditions	x1 = 0.2	x1 = 0.25	x1 = 0.33
298.15 K	1220.1 ± 12	1205.1 ± 12	–
303.15 K	1217.3 ± 12	1202 ± 12	1170 ± 12
308.15 K	1214.1 ± 12	1199 ± 12	–
313.15 K	1211.4 ± 12	1196.1 ± 12	1163.8 ± 12
318.15 K	1208.1 ± 12	1192.9 ± 12	–
323.15 K	1204.8 ± 12	1188.4 ± 12	1158.5 ± 12
328.15 K	1202.1 ± 12	1186.8 ± 12	–
333.15 K	1198.9 ± 12	1184 ± 12	1153.1 ± 12
338.15 K	1196.1 ± 12	1180.7 ± 12	–
343.15 K	1193.6 ± 12	1177.7 ± 12	1145.8 ± 12
348.15 K	1190.1 ± 12	1174.6 ± 12	–
353.15 K	1187.3 ± 12	1171.9 ± 12	1140.3 ± 12
358.15 K	1184.1 ± 12	1168.5 ± 12	–
363.15 K	1180.7 ± 12	1166.1 ± 12	1134.4 ± 12
368.15 K	1178.1 ± 12	1162.4 ± 12	–

CCN(CC)CCO.Cl [2-(diethylamino)ethanol hydrochloride] + OCCO
mass density [kg/m3]
Conditions	x1 = 0.2	x1 = 0.25	x1 = 0.33
298.15 K	1103.7 ± 12	–	1099.5 ± 12
303.15 K	1100.4 ± 12	1098.6 ± 12	1096.5 ± 12
308.15 K	1097.3 ± 12	–	1093.3 ± 12
313.15 K	1094.2 ± 12	1092.6 ± 12	1090.3 ± 12
318.15 K	1091 ± 12	–	1087.1 ± 12
323.15 K	1087.7 ± 12	1086.2 ± 12	1084 ± 12
328.15 K	1084.6 ± 12	–	1080.9 ± 12
333.15 K	1081.5 ± 12	1079.7 ± 12	1077.8 ± 12
338.15 K	1078.2 ± 12	–	1074.8 ± 12
343.15 K	1075 ± 12	1074 ± 12	1071.7 ± 12
348.15 K	1071.8 ± 12	–	1068.6 ± 12
353.15 K	1068.3 ± 12	1067.5 ± 12	1065.5 ± 12
358.15 K	1065.4 ± 12	–	1062.4 ± 12
363.15 K	1062.2 ± 11	1060 ± 11	1059 ± 11
368.15 K	1059 ± 11	–	1056.2 ± 11

C[N+](C)(C)CCO.[Cl-] [choline chloride] + OCC(O)CO
mass density [kg/m3]
Conditions	x1 = 0.25	x1 = 0.33	x1 = 0.5
298.15 K	1203 ± 12	1192 ± 12	–
303.15 K	1200.2 ± 12	1189.5 ± 12	1153.5 ± 12
308.15 K	1197.6 ± 12	1186.7 ± 12	–
313.15 K	1195.1 ± 12	1183.8 ± 12	1148.3 ± 12
318.15 K	1192.2 ± 12	1181.4 ± 12	–
323.15 K	1189.1 ± 12	1177.6 ± 12	1143 ± 12
328.15 K	1186.8 ± 12	1176.1 ± 12	–
333.15 K	1184.4 ± 12	1174.1 ± 12	1137.9 ± 12
338.15 K	1181.4 ± 12	1170.8 ± 12	–
343.15 K	1178.1 ± 12	1167.4 ± 12	1132.6 ± 12
348.15 K	1176 ± 12	1165.5 ± 12	–
353.15 K	1173.2 ± 12	1163.5 ± 12	1126.6 ± 12
358.15 K	1170.6 ± 12	1160.2 ± 12	–
363.15 K	1167.8 ± 12	1157.1 ± 12	1122 ± 12
368.15 K	1165.2 ± 12	1154.9 ± 12	–

C[N+](C)(C)CCO.[Cl-] [choline chloride] + OCCO
mass density [kg/m3]
Conditions	x1 = 0.28	x1 = 0.33	x1 = 0.36
298.15 K	1117 ± 12	–	1118 ± 12
303.15 K	1114.1 ± 12	1114.6 ± 12	1115.6 ± 12
308.15 K	1111.1 ± 12	–	1112.2 ± 12
313.15 K	1108.2 ± 12	1108.8 ± 12	1109.7 ± 12
318.15 K	1105.2 ± 12	–	1106.4 ± 12
323.15 K	1102.3 ± 12	1103.6 ± 12	1103.7 ± 12
328.15 K	1099.3 ± 12	–	1100.6 ± 12
333.15 K	1096.2 ± 12	1097.4 ± 12	1096.8 ± 12
338.15 K	1093.4 ± 12	–	1094.8 ± 12
343.15 K	1090.4 ± 12	1091.6 ± 12	1091 ± 12
348.15 K	1087.5 ± 12	–	1089 ± 12
353.15 K	1084.7 ± 12	1085.4 ± 12	1087 ± 12
358.15 K	1081.6 ± 12	–	1083.2 ± 12
363.15 K	1078.8 ± 12	1079.1 ± 12	1082 ± 12
368.15 K	1075.7 ± 12	–	1077.4 ± 12

C[P+](c1ccccc1)(c1ccccc1)c1ccccc1.[Br-] [methyltriphenylphosphonium bromide] + OCC(O)CO
mass density [kg/m3]
Conditions	x1 = 0.2	x1 = 0.25	x1 = 0.33
298.15 K	1288.9 ± 13	1297.6 ± 13	–
303.15 K	1285.5 ± 13	1294.5 ± 13	1303 ± 13
308.15 K	1281.7 ± 13	1290.6 ± 13	–
313.15 K	1278 ± 13	1287 ± 13	1295.2 ± 13
318.15 K	1274.5 ± 13	1283.6 ± 13	–
323.15 K	1271 ± 13	1280.9 ± 13	1288.6 ± 13
328.15 K	1267.3 ± 13	1276.6 ± 13	–
333.15 K	1263.4 ± 13	1273.6 ± 13	1281.7 ± 13
338.15 K	1260.1 ± 13	1269.6 ± 13	–
343.15 K	1256.8 ± 13	1266 ± 13	1274.9 ± 13
348.15 K	1252.9 ± 13	1262.6 ± 13	–
353.15 K	1249.5 ± 13	1259.3 ± 13	1268.2 ± 13
358.15 K	1245.7 ± 13	1255.6 ± 13	–
363.15 K	1242.3 ± 13	1252.4 ± 13	1261.5 ± 13
368.15 K	1238.5 ± 13	1248.6 ± 13	–

C[P+](c1ccccc1)(c1ccccc1)c1ccccc1.[Br-] [methyltriphenylphosphonium bromide] + OCCO
mass density [kg/m3]
Conditions	303.15 K	313.15 K	323.15 K	333.15 K	343.15 K	353.15 K	363.15 K
x1 = 0.16	1216.3 ± 12	1208.6 ± 12	1202 ± 12	1194.7 ± 12	1187 ± 12	1179.2 ± 12	1172.3 ± 12
x1 = 0.2	1229 ± 12	1222 ± 12	1215.1 ± 12	1207.9 ± 12	1200.6 ± 12	1193.6 ± 12	1186.4 ± 12
x1 = 0.25	1242.4 ± 13	1239.8 ± 13	1232.4 ± 12	1226 ± 12	1218.8 ± 12	1211.9 ± 12	1204.5 ± 12
